We go through 15 compounds from patent US20240228458A1, “PYRIMIDINE DERIVATIVE HAVING PROTEIN KINASE INHIBITORY ACTIVITY, AND THERAPEUTIC PHARMACEUTICAL COMPOSITION COMPRISING SAME” (THERAPEX CO., LTD., priority 2021, published 2024).

The term GI50 denotes the concentration that inhibits growth by half.

Common to all, as to format: cell-based
Assay [1] deals with Ba/F3 cells expressing EGFR-wt. Put plainly: Growth inhibition (GI50) of Ba/F3 cells expressing EGFR-wt, Celltiter glo. Particulars: Mus musculus, BaF3, 72 h. The method in brief:
(§1)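 Viable-cell luminescence (CellTiter-Glo) after 72 h compound exposure at 37 °C, 5% CO2 gave GI50 (μM, 50% growth inhibition). Compounds were 4-fold serial dilutions, 10 points, from a 2 mM stock, 0.5% DMSO, added 4 h after plating EGFR-variant Ba/F3 cells at 100,000 cells/ml.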
(Cellular ATP, detected with luciferase, serves as a proxy for viable cell number.)

Assay [2] relates to Ba/F3 cells expressing del19/T790M/C797S (EGFR-DTC). The experiment in a line: Growth inhibition (GI50) of Ba/F3 cells expressing del19/T790M/C797S (EGFR-DTC), Celltiter glo. As to conditions: Mus musculus, BaF3, 72 h. In short, it runs like this:
as §1

The subject of assay [3] is Ba/F3 cells expressing L858R/T790M/C797S (EGFR-LTC). Put plainly: Growth inhibition (GI50) of Ba/F3 cells expressing L858R/T790M/C797S (EGFR-LTC), Celltiter glo. As to conditions: Mus musculus, BaF3, 72 h. The method in brief:
as §1

For assay [4], the system named is Ba/F3 cells expressing del19/T790M (EGFR-DT). The experiment in a line: Growth inhibition (GI50) of Ba/F3 cells expressing del19/T790M (EGFR-DT), Celltiter glo. Particulars: Mus musculus, BaF3, 72 h. Here is the method: (§2) In this experimental example, a determination was made as to whether the compounds prepared in Examples 1-283 have the ability to inhibit the growth of Ba/F3 cells expressing EGFR-wt, del19/T790M/C797S (EGFR-DTC), L858R/T790M/C797S (EGFR-LTC), del19/T790M (EGFR-DT), and L858R/T790M (EGFR-LT) variants.
(§3) The parental Ba/F3 cell line is a population of cells that are not introduced with EGFR variants. Specifically, 100 μl of a cell line expressing each variant was plated in a 96-well plate at a density of 100,000 cells/ml. 10-point, 4-fold serial dilutions of each compound were prepared, starting at 2 mM. After 4 h, 0.5 μl of the compound (0.5% DMSO) was added, followed by incubation at 37° C. and 5% CO2 for 72 h. After incubation, the number of viable cells was measured using a Celltiter glo assay kit (Promega) and the GI50 of the compound was determined. The term “GI50” refers to the molar concentration (μM) of the compound required for 50% growth inhibition of cells.

For assay [5], the system named is Ba/F3 cells expressing L858R/T790M (EGFR-LT). The experiment in a line: Growth inhibition (GI50) of Ba/F3 cells expressing L858R/T790M (EGFR-LT), Celltiter glo. As to conditions: Mus musculus, BaF3, 72 h. Here is the method:
as §2, §3

Another assay concerns parental Ba/F3 cell line. The experiment in a line: Growth inhibition (GI50) of the parental Ba/F3 cell line (not introduced with EGFR variants), Celltiter glo. As to conditions: Mus musculus, BaF3, 72 h, parental Ba/F3 cells. In short, it runs like this:
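Viable cell count by CellTiter-Glo after 72 h at 37 °C gave GI50 values (μM, 50% growth inhibition). Cells lacking EGFR variants were seeded at 100,000 cells/ml and dosed 4 h later with 4-fold serial dilutions from a 2 mM stock, 0.5% DMSO.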

`COc1cc(N2CCC(N3CCCN(C)CC3)CC2)c(Cl)cc1Nc1ncc(Br)c(Nc2cc(Cl)ccc2NS(C)(=O)=O)n1` [Example 95, N-(2-((5-bromo-2-((5-chloro-2-methoxy-4-(4-(4-methyl-1,4-diazepan-1-yl)piperidin-1-yl)phenyl)amino)pyrimidin-4-yl)amino)-4-chlorophenyl)methanesulfonamide]: the 50% growth inhibitory concentration (GI50) in assay [1] was 100 to 500 nM; in assay [2], 1 to 25 nM; in assay [3], 1 to 25 nM; in assay [4], 1 to 25 nM; in assay [5], 1 to 25 nM; in the assay on parental Ba/F3 cell line, 500 to 2000 nM.
As for `Cc1cc(Nc2ncc(Br)c(Nc3cc(Cl)ccc3NS(C)(=O)=O)n2)c(Cl)cc1N1CCC(N2CCCN(C)CC2)CC1` [Example 97, N-(2-((5-bromo-2-((2-chloro-5-methyl-4-(4-(4-methyl-1,4-diazepan-1-yl)piperidin-1-yl)phenyl)amino)pyrimidin-4-yl)amino)-4-chlorophenyl)methanesulfonamide], the 50% growth inhibitory concentration (GI50) lay in the range of 500 to 2000 nM in assay [1]; 25 to 100 nM in assay [2]; 1 to 25 nM in assay [3]; 25 to 100 nM in assay [4]; 25 to 100 nM in assay [5]; 500 to 2000 nM in the assay with parental Ba/F3 cell line.
Regarding `Cc1cc(Nc2ncc(Br)c(Nc3cc(Cl)ccc3NS(C)(=O)=O)n2)c(Cl)cc1N1CCC(N2CCCC(N(C)C)C2)CC1` (stereo not drawn) [Example 98, N-(2-((5-bromo-2-((2-chloro-4-(3-(dimethylamino)-[1,4′-bipiperidin]-1′-yl)-5-methylphenyl)amino)pyrimidin-4-yl)amino)-4-chlorophenyl)methanesulfonamide], the 50% growth inhibitory concentration (GI50) in assay [1] was in the range of 100 to 500 nM; in assay [2], 25 to 100 nM; in assay [3], 25 to 100 nM; in assay [4], 25 to 100 nM; in assay [5], 100 to 500 nM; in the assay with parental Ba/F3 cell line, 500 to 2000 nM.
In the case of `COc1cc(N2CCC(N3CCN(C)CC3)CC2)c(C)cc1Nc1ncc(Cl)c(Nc2ccc3ncccc3c2NS(C)(=O)=O)n1` [Example 115, N-(6-((5-chloro-2-((2-methoxy-5-methyl-4-(4-(4-methylpiperazin-1-yl)piperidin-1-yl)phenyl)amino)pyrimidin-4-yl)amino)quinolin-5-yl)methanesulfonamide], the GI50 is 100 to 500 nM in assay [1]; 1 to 25 nM in assay [2]; 1 to 25 nM in assay [3]; 100 to 500 nM in assay [4]; 25 to 100 nM in assay [5]; 2000 to 10000 nM in the assay on parental Ba/F3 cell line.
In the case of `COc1cc(N2CCC(N3CCN(C)CC3)CC2)c(C)cc1Nc1ncc(Cl)c(Nc2ccc3nccnc3c2NS(C)(=O)=O)n1` [Example 131, N-(6-((5-chloro-2-((2-methoxy-5-methyl-4-(4-(4-methylpiperazin-1-yl)piperidin-1-yl)phenyl)amino)pyrimidin-4-yl)amino)quinoxalin-5-yl)methanesulfonamide], the GI50 in assay [1] lay in the range of 100 to 500 nM; in assay [2], 25 to 100 nM; in assay [3], 1 to 25 nM; in assay [4], 1 to 25 nM; in assay [5], 25 to 100 nM; in the assay on parental Ba/F3 cell line it was 500 to 2000 nM.
On to `COc1nc(N2CCC(N3CCN(C)CC3)CC2)c(C)cc1Nc1ncc(Cl)c(Nc2ccc3nccnc3c2NS(C)(=O)=O)n1` [Example 134, N-(6-((5-chloro-2-((2-methoxy-5-methyl-6-(4-(4-methylpiperazin-1-yl)piperidin-1-yl)pyridin-3-yl)amino)pyrimidin-4-yl)amino)quinoxalin-5-yl)methanesulfonamide], for which the GI50 in assay [1] was 100 to 500 nM; in assay [2], 25 to 100 nM; in assay [3] it was 25 to 100 nM; in assay [4], 100 to 500 nM; in assay [5], 100 to 500 nM; with parental Ba/F3 cell line it was 100 to 500 nM.
For the compound `COc1cc(N2CCC(N3CCN(C)CC3)CC2)c(C)cc1Nc1ncc(Cl)c(Nc2cc3c(cc2NS(C)(=O)=O)CCO3)n1` [Example 140, N-(6-((5-chloro-2-((2-methoxy-5-methyl-4-(4-(4-methylpiperazin-1-yl)piperidin-1-yl)phenyl)amino)pyrimidin-4-yl)amino)-2,3-dihydrobenzofuran-5-yl)methanesulfonamide], the GI50 fell in the range of 100 to 500 nM in assay [1]; 25 to 100 nM in assay [2]; 1 to 25 nM in assay [3]; 1 to 25 nM in assay [4]; 25 to 100 nM in assay [5]; 500 to 2000 nM with parental Ba/F3 cell line.
In the case of `COc1cc(N2CCC(N3CCN(C)CC3)CC2)c(C)cc1Nc1ncc(Br)c(Nc2ccccc2N=S(C)(C)=O)n1` [Example 142], the GI50 in assay [1] lay within 500 to 2000 nM; in assay [2], 100 to 500 nM; in assay [3] it was 25 to 100 nM; in assay [4] it was 500 to 2000 nM; in assay [5], 500 to 2000 nM; with parental Ba/F3 cell line it was 500 to 2000 nM.
In the case of `COc1cc(N2CCC(N3CCN(C)CC3)CC2)c(Cl)cc1Nc1ncc(Br)c(Nc2ccccc2N=S(C)(C)=O)n1` [Example 143], the GI50 was 100 to 500 nM in assay [1]; 100 to 500 nM in assay [2]; 100 to 500 nM in assay [3]; 500 to 2000 nM in assay [4]; 500 to 2000 nM in assay [5]; 100 to 500 nM in the assay on parental Ba/F3 cell line.
`Cc1cc(Nc2ncc(Br)c(Nc3ccccc3N=S(C)(C)=O)n2)c(Cl)cc1N1CCC(N2CCN(C)CC2)CC1` [Example 144]: the GI50 in assay [1] was 500 to 2000 nM; in assay [2] it was 500 to 2000 nM; in assay [3] it was 100 to 500 nM; in assay [4], 500 to 2000 nM; in assay [5] it was 100 to 500 nM; in the assay on parental Ba/F3 cell line, 500 to 2000 nM.
As for `COc1cc(N2CCC(N3CCC(C(F)(F)F)CC3)CC2)c(C)cc1Nc1ncc(Br)c(Nc2ccc(F)cc2NS(C)(=O)=O)n1` [Example 148, N-(2-((5-bromo-2-((2-methoxy-5-methyl-4-(4-(trifluoromethyl)-[1,4′-bipiperidin]-1′-yl)phenyl)amino)pyrimidin-4-yl)amino)-5-fluorophenyl)methanesulfonamide], the concentration for 50% growth inhibition (GI50) in assay [1] fell in the range of 500 to 2000 nM; in assay [2], 100 to 500 nM; in assay [3], 100 to 500 nM; in assay [4], 100 to 500 nM; in assay [5] it was 500 to 2000 nM; in the assay on parental Ba/F3 cell line it was 500 to 2000 nM.
Take `COc1cc(N2CCC(N3CCCC(N(C)C)C3)CC2)c(Cl)cc1Nc1ncc(Br)c(Nc2ccc(F)cc2NS(C)(=O)=O)n1` (stereo not drawn) [Example 149, N-(2-((5-bromo-2-((5-chloro-4-(3-(dimethylamino)-[1,4′-bipiperidin]-1′-yl)-2-methoxyphenyl)amino)pyrimidin-4-yl)amino)-5-fluorophenyl)methanesulfonamide]: the GI50 in assay [1] was in the range of 100 to 500 nM; in assay [2], 100 to 500 nM; in assay [3], 25 to 100 nM; in assay [4], 100 to 500 nM; in assay [5] it was 100 to 500 nM; with parental Ba/F3 cell line, 100 to 500 nM.
In the case of `COc1cc(N2CCC(N3CCN(C)CC3)CC2)c(C)cc1Nc1nnc(Cl)c(Nc2cc(Cl)ccc2NS(C)(=O)=O)n1` [Example 152, N-(4-chloro-2-((6-chloro-3-((-2-methoxy-5-methyl-4-(4-(4-methylpiperazin-1-yl)piperidin-1-yl)phenyl)amino)-1,2,4-triazin-5-yl)amino)phenyl)methanesulfonamide], the concentration for 50% growth inhibition (GI50) lay within 100 to 500 nM in assay [1]; 1 to 25 nM in assay [2]; 1 to 25 nM in assay [3]; 1 to 25 nM in assay [4]; 1 to 25 nM in assay [5]; 500 to 2000 nM in the assay with parental Ba/F3 cell line.
On to `COc1cc(N2CCC(N3CCN(C)CC3)CC2)c(C)cc1Nc1ncc(Cl)c(Nc2cc(Cl)ccc2P(C)(C)=O)n1` [Example 153, (4-chloro-2-((5-chloro-2-((2-methoxy-5-methyl-4-(4-(4-methylpiperazin-1-yl)piperidin-1-yl)phenyl)amino)pyrimidin-4-yl)amino)phenyl)dimethylphosphine oxide], for which the 50% growth inhibitory concentration (GI50) fell in the range of 500 to 2000 nM in assay [1]; 100 to 500 nM in assay [2]; 100 to 500 nM in assay [3]; 100 to 500 nM in assay [4]; 500 to 2000 nM in assay [5]; 2000 to 10000 nM in the assay with parental Ba/F3 cell line.
With `Cc1cc(Nc2ncc(Cl)c(Nc3cc(Cl)ccc3P(C)(C)=O)n2)c(Cl)cc1N1CCC(N2CCN(C)CC2)CC1` [Example 154, (4-chloro-2-((5-chloro-2-((2-chloro-5-methyl-4-(4-(4-methylpiperazin-1-yl)piperidin-1-yl)phenyl)amino)pyrimidin-4-yl)amino)phenyl)dimethylphosphine oxide], the GI50 fell in the range of 2000 to 10000 nM in assay [1]; 100 to 500 nM in assay [2]; 500 to 2000 nM in assay [3]; 500 to 2000 nM in assay [4]; 2000 to 10000 nM in assay [5]; 2000 to 10000 nM in the assay on parental Ba/F3 cell line.
